According to US7473418B2, “Pan cancer oncolytic vectors and methods of use thereof” (Cell Genesys, Inc., priority 2004, dated 2009):

How the values were obtained:
LNCaP cells = assay: In vitro combination of CG5757 and chemotherapeutic agents; assay type: cell-based, human
Procedure: (§1) Potential synergism between existing chemotherapeutic agents and the replication competent vectors of the present invention was investigated. Co-application of CG5757 with a variety of known chemotherapeutic agents was evaluated using an in vitro cell assay. A variety of known chemotherapeutic agents were tested in combination with CG5757 for their in vitro cytotoxic effect on Hep3B and LNCaP cells.

Hep3B cells = assay: as above; assay type: cell-based, human
Procedure: as §1

SMILES | combination effect with CG5757 (LNCaP cells) | combination effect with CG5757 (Hep3B cells) | cytotoxicity (Hep3B cells; 5 ng/ml, agent alone)
CC(=O)O[C@H]1C(=O)[C@@]2(C)[C@H]([C@H](OC(=O)c3ccccc3)[C@]3(O)C[C@H](OC(=O)[C@H](O)[C@@H](NC(=O)c4ccccc4)c4ccccc4)C(C)=C1C3(C)C)[C@]1(OC(C)=O)CO[C@@H]1C[C@@H]2O [Taxol] | potential synergistic cytotoxicity |  | 
COc1cccc2c1C(=O)c1c(O)c3c(c(O)c1C2=O)C[C@@](O)(C(=O)CO)C[C@@H]3O[C@H]1C[C@H](N)[C@H](O)[C@H](C)O1 [doxorubicin] |  | potential synergistic cytotoxicity | did not generate cytotoxicity
